Measured values from patent US20230398087A1, “APPLICATION OF BZP IN TREATMENT OF ISCHEMIC CARDIOVASCULAR AND CEREBRAL VASCULAR DISEASES” (priority 2020, published 2023).
Where “and” joins values, the source holds several entries; their conditions need not be identical. Equal values may be shown once. Entries after “also recorded” stand apart in the source; their conditions may differ.

How the values were obtained:
[1] = test system: MCAO model rats; experiment: Focal cerebral ischemia-reperfusion injury in rats (MCAO model); format: in vivo
Experimental: BZP has a protective effect on cerebral ischemia-reperfusion injury and is effective when administered within 4 hours after ischemia, especially within 2 hours after ischemia.
In the follow-up test, the drug was administered at 2 h of ischemia.
BZP can improve motor dysfunction, reduce the volume of cerebral infarction, and reduce cerebral edema. The optimal treatment time window is within 4 hours after ischemia, especially within 2 hours after ischemia.

[2] = test system: experimental thrombosis; experiment: Experimental thrombosis in rats; format: in vivo; details: for results of experimental thrombosis: significantly lower than model group (P<0.01)
[3] = in vivo; details: for recovery of toxic reactions in the nervous system and respiratory system: acute toxicity test; for MTD: in vivo, single intravenous injection
Experimental: In the acute toxicity test, a single intravenous injection of BZP was given to rats and dogs, and the MTDs were 200 mg/kg and 300 mg/kg.

[4] = Long-term toxicity test, 13 consecutive weeks, rats; format: in vivo
Experimental: These gradually returned to normal within 1 hour. […] The nervous system and respiratory system reactions in the long-term toxicity test were transient reactions, and the slight anemia and damage to the liver also recovered within the observation period.

[5] = Phase I safety and tolerability in healthy subjects (BZP1601 single dose, BZP1702 multiple doses); format: in vivo, human
Source text: Analysis population: same as BZP1601 trial. All 36 subjects enrolled were included in the safety analysis data set, 30 subjects in the BZP group and 6 subjects in the placebo group.
The AE related to the study drug occurred from a few minutes to the 9th day after administration, and the symptoms turned to disappear without any clinical intervention.

[6] = test system: acute ischemic stroke patients; experiment: BZP1703 Phase II clinical trial in acute ischemic stroke; format: in vivo, human; details: preliminary results
Source text: The BZP1703 clinical trial is a multi-center, randomized, double-blind, placebo-controlled Phase II clinical trial. The purpose of the trial is to evaluate the safety and feasibility of different doses of BZP for injection compared with placebo in the treatment of acute ischemic stroke, and to preliminarily explore its effectiveness, so as to provide a basis for the design of Phase III clinical trial.
The trial plans to enroll 375 acute ischemic stroke patients aged 45 to 75 in China. […]
The primary safety endpoint of the BZP1703 trial is SAE, and the primary efficacy endpoint is the difference between the NIHSS score on day 14 and the baseline NIHSS score. Secondary safety endpoints include all-cause death, fatal bleeding and symptomatic intracranial hemorrhage, hemorrhagic transformation of cerebral infarction detected by head magnetic resonance imaging (MRI) on day 14, various adverse events; other bleeding events, AE, AEs of special interest (seizures, bradycardia, atrioventricular block, coagulation abnormalities, proteinuria, leukopenia), number and incidence of patients with new vascular events (ischemic stroke/hemorrhagic stroke/myocardial infarction/vascular death), vital signs, physical examination, laboratory tests (blood routine, blood biochemistry, urine routine, stool routine, coagulation function, etc.), 12-lead electrocardiogram (ECG) and other abnormalities. […]

[7] = BZP1601 Phase I single dose pharmacokinetics in healthy subjects
Experimental: Analysis population: Any subjects who have received BZP and undergone biological sample collections and can undergo pharmacokinetic analysis will be included in the pharmacokinetic analysis (excluding the 12.5 mg of pre-study group). The study analysis included 6 BPZ groups (respectively 25 mg, 50 mg, 100 mg, 200 mg, 300 mg, and 400 mg) and the placebo group, and the number of subjects enrolled in each group was 8, 8, 8, 8, 8, 8, 12 subjects, a total of 60 subjects. All 60 subjects enrolled in the formal study were included in the pharmacokinetic analysis set.
(§1) The blood samples were collected at 0 minutes, 20 minutes, 40 minutes, minutes (end of infusion), 1.25 hours, 1.5 hours, 2 hours, 2.5 hours, 3 hours, 4 hours, 6 hours, 8 hours, 12 hours, 16 hours, 24 hours, 36 hours, and 48 hours after administration in BZP1601 trial, while in the BZP1702 trial, on the first day of administration, the blood samples were collected only by 24 hours after administration.

[8] = BZP1702 Phase I multiple doses pharmacokinetics in healthy subjects; details: for half-life: both, human, plasma
Experimental: Analysis population: same as BZP1601 trial. The study contained 4 BZP groups (50 mg, 100 mg, 200 mg respectively) and a placebo group. Each group enrolled 10, 10, 10 and 6 subjects, respectively, a total of 36 subjects. 1 subject in the 50 mg group took a drug two days before the administration, and the paracetamol, caffeine, artificial cow-bezoar and chlorphenamine maleate may affect the metabolism of the drug, and the subject dropped out of the group after collecting a 24-hour blood sample on the second day of administration, so the pharmacokinetic parameters could not be fully calculated, and thus this subject was not included in the pharmacokinetic analysis data set, and the other 29 subjects who were given BZP were all included in the pharmacokinetic analysis data set.
as §1

[9] = BZP 3, 12 and 24 mg/kg, compared with the model group
[10] = single intravenous infusion, 25-400 mg

In the case of `CCCCC(O)c1ccc(Br)cc1C(=O)[O-].[Na+]` (stereo not drawn) [BZP, sodium 5-bromo-2-(α-hydroxypentyl)benzoate], the “volume of cortical infarction” value ([1]; 0.75 mg/kg (P<0.01)) is reported as “significantly reduce the volume of cortex”, the “effect on volume of cerebral infarction compared with Br-NBP group” value ([1]; 3 mg/kg of BZP (P<0.01)) is reported as “better than that of Br-NBP group” and the “muscle strength and balance beam behavior” value ([1]; 12 mg/kg) is reported as “significantly restore”. For the same compound, the “proportion of necrotic neurons and apoptosis rate” value ([1]; 12 mg/kg) was “reduce the proportion of necrotic neurons and apoptosis rate”, the “effect of administration at 0.5 h and 2 h compared with 4 h after ischemia” value ([1]; 12 mg/kg (P<0.01)) was “better than that of 4 h” and the “volume of cerebral infarction, treatment time window” value ([1]; 12 mg/kg at 0.5 h, 2 h or 4 h after ischemia, compared with the model group) was “significantly reduce”. For the same compound, the “improved effects compared with NBPK group” value ([1]; 12 mg/kg, muscle strength, balance beam, necrotic neurons, apoptosis rate) was “significantly better than those of NBPK group”, the “volumes of cerebral infarction” value ([1]; 0.75, 3, 12 and 24 mg/kg, compared with the model group (P<0.01)) was “significantly reduced” and the neurobehavioral scores ([1]; 3, 12 and 24 mg/kg, at 2.5 h and 6 h, compared with the model group (P<0.05, P<0.01)) was “significantly lower”. For the same compound, the “volumes of brain edema” value ([1]; 3, 12 and 24 mg/kg, compared with the model group (P<0.01)) was “significantly reduced”, the “volumes of striatal and cortical infarction” value ([1]; 3 and 12 mg/kg (P<0.01)) was “significantly reduced the volumes of striatal and cortical infarction” and the “effect on volume of cerebral infarction compared with NBP-K and Br-NBP groups” value ([1]; 12 and 24 mg/kg of BZP (P<0.01)) was “better than those of NBP-K and Br-NBP groups”. The “effect on brain edema compared with NBP-K group and Br-NBP group” value ([1]; 24 and 12 mg/kg of BZP (P<0.01)) was “better than those of NBP-K group and Br-NBP group”, the brain swelling [1, 9] was “significantly reduce” and the “volume of cerebral infarction” value [1, 9] was “significantly reduce”. For the same compound, the “neurobehavior of MCAO model rats” value ([1]; BZP 3, 12 and 24 mg/kg, dose-dependent) was “improve the neurobehavior”, the “treatment time window: time of administration after ischemia at which effective” value ([1]; especially within 2 hours after ischemia) was ≤ 4 h and the “effective dose to protect against ischemia-reperfusion injury in rats” value ([1]; rat, in vivo) was 12 mg/kg. For the same compound, the “experimental thrombosis compared with the Br-NBP group” value ([2]; high dose group (P<0.01)) was “weaker than that in the Br-NBP group”, the “experimental thrombosis compared with the ASA group with the same molar dose” value ([2]; high dose group (P>0.05)) was “no statistical difference” and the “results of experimental thrombosis” value ([2]; high dose group) was 0.13±0.03. The “results of experimental thrombosis” value ([2]; low dose group) was 0.23±0.04, the “results of experimental thrombosis” value ([2]; medium dose group) was 0.18±0.02 and the “recovery of toxic reactions in the nervous system and respiratory system” value ([3]; dogs) was “recovered within 15 minutes to 4 hours”. The “recovery of toxic reactions in the nervous system and respiratory system” value ([3]; rats) was “recovered within 15 minutes to 4 hours”, the MTD ([3]; dog, dogs) was 300 mg/kg and the MTD ([3]; rat, rats) was 200 mg/kg. For the same compound, the “time to return to normal” value ([4]; 150 mg/kg) was ≤ 1 h, the “clinical signs at the end of each administration” value ([4]; 150 mg/kg intravenous once a day, 13 weeks) was “shortness of breath, prone position, occasional salivation, and disappearance of righting reflex” and the “hematology, blood biochemistry, eye examination and urine routine” value ([4]; 13 weeks) was “no obvious abnormalities”. The NOAEL at 13 weeks ([4]; rat, in vivo, long-term toxicity test, read-out: NOAEL dose) was 50 mg/kg, the “incidence of AE with dose increase” value ([5]; both Phase I trials) was “does not increase with the dose increase; also recorded: did not increase with dose increase” and the “overall safety and tolerability in healthy subjects” value ([5]; both Phase I trials) was “safe and well tolerated”. For the same compound, the “proportion of AE, BZP groups compared with the placebo group” value ([5]; both Phase I trials) was “no statistical difference”, the “death, SAE, AE leading to drop out, other important AE” value ([5]; both clinical trials) was “no death, SAE, AE leading to drop out, or other important AE” and the “dose-limiting toxicity (DLT)” value ([5]; both clinical trials) was “No dose-limiting toxicity (DLT) occurred”. The “AE of more than mild severity” value ([5]; multiple dose trial, 100 mg group, AE of others mild) was “one case of moderate hypotension”, the “AE judged by the investigator to be related to study drug, multiple doses” value ([5]; multiple doses, dose group per AE) was “administration site pain; also recorded: hypotension; also recorded: hypokalemia; also recorded: decreased diastolic blood pressure” and the safety and tolerance ([5]; multiple intravenous infusions, 50 to 200 mg) was “good safety and tolerance”. The “AE judged by the investigator to be related to study drug, single dose” value ([5]; single dose, dose group per AE) was “coagulopathy; also recorded: mild bradycardia; also recorded: decreased white blood cell counts; also recorded: decreased neutrophil cell count/percentage; also recorded: first-degree atrioventricular block; also recorded: proteinuria”, the safety and tolerance [5, 10] was “good safety and tolerance” and the “effectiveness, single dose of 200 mg compared with 100 mg” value ([6]; acute ischemic stroke patients) was “significantly more effective than a single dose of 100 mg”. The “effectiveness, 200 mg twice daily compared with 100 mg twice daily” value ([6]; intravenous infusion for 14 days) was “significantly more effective than the dosage regimen of a single dose of 100 mg twice daily”, the debrominated metabolites ([7]; 200 mg group) was “no debrominated metabolites were found” and the “metabolites other than BNBP” value ([7]; BZP1601) was “did not find other meaningful metabolites except BNBP”. The “Tmax / time of peak blood drug level” value ([7]; BZP1601, median Tmax similar in each dose group) was “basically reached the peak blood drug level after the end of administration”, the half-life ([7]; both, human, plasma, iv) was ~8 h and the “difference in AUC0-t and Cmax between subjects of different genders” value ([7]; single dose 25-400 mg) was “not significantly different; also recorded: There was no significant”. The “cumulative urine excretion rate across dose groups” value ([7]; single dose, each dose group) was “basically the same”, the “relationship of AUC0-t and Cmax in plasma with the dose” value [7, 10] was “linearly related to the dose” and the “accumulation after multiple intravenous infusions” value ([8]; 7 days) was “no obvious drug accumulation; also recorded: no significant drug accumulation; also recorded: There was no significant”. The “metabolites other than BNBP” value ([8]; BZP1702) was “No significant metabolites other than BNBP were found”, the accumulation ratio ([8]; after 7 days of continuous administration) was 1.10-1.18 and the half-life ([8]; intravenous) was 5.34 to 5.57 h. The half-life ([8]; iv) was 11.1 to 13.3 h, the “difference in AUC0-t and Cmax between subjects of different genders” value ([8]; multiple doses) was “not significantly different and 7 days. There was no” and the “mean ratio range between genders, AUC0-t” value ([8]; multiple doses) was 0.797-1.01. For the same compound, the “mean ratio range between genders, Cmax” value ([8]; multiple doses) was 0.799-1.01, the “day on which blood drug level reached steady state” value ([8]; multiple intravenous infusions of BZP, 50-200 mg) was “steady state on the 5th day; also recorded: steady state on the fifth” and the “relationship of AUC0-t and Cmax in plasma with the dose” value ([8]; multiple intravenous infusions, 50-200 mg, first and steady-state administration) was “linearly related to the dose; also recorded: linear relationship with the dose”.
